Reference: US11478493B2, “Fabrication and application of a hetero-targeted nano-cocktail with traceless linkers” (priority 2019, dated 2022)

Test system: SKOV-3 cells
Assay: Cytotoxicity assay (MTT) against SKOV-3 cells
Format: cell-based, Human
Settings: SKOV-3, 72 hours
Description: Human ovarian cancer cells, SKOV-3 and SKOV-3/Luc cells, were cultured in GIBCO™ DMEM supplemented with 10% FBS, 100 units/mL penicillin, and 100 μg/mL streptomycin at 37° C. in […] culture flasks under a humidified atmosphere of 5% CO2. Cells were sub-cultured when the cell confluence reached ˜80%.
The anticancer activities of polymer nanogels against SKOV-3 cells were evaluated by MTT assay. Cells were seeded in 96-well plates at a density of 5,000 cells/well for 24 hours prior to the test at 37° C. with 5% CO2. Then the cells were treated with varying concentrations of PTX/DOX or polymer nanogels in fresh medium and further incubated for 72 hours. In the control group, cells were allowed to grow without any treatment. After that, the medium was replaced with 100 μL fresh medium containing MTT reagent (final concentration 1 mg/mL) and cells were further incubated for 4 hours. The purple MTT crystal was dissolved with 100 μL MTT stop solution and the optical density at 595 nm was recorded on a microplate reader (ELx808™ Absorbance Microplace Reader, Bio-Tech Instrument, Inc.).

Compound `COc1cccc2c1C(=O)c1c(O)c3c(c(O)c1C2=O)C[C@@](O)(C(=O)CO)C[C@@H]3O[C@H]1C[C@H](N)[C@H](O)[C@H](C)O1` [DOX, doxorubicin] has an IC50 (DOX, PPD and PPDA nanogels) of 582 nM.
Compound `CC(=O)O[C@H]1C(=O)[C@@]2(C)[C@H]([C@H](OC(=O)c3ccccc3)[C@]3(O)C[C@H](OC(=O)[C@H](O)[C@@H](NC(=O)c4ccccc4)c4ccccc4)C(C)=C1C3(C)C)[C@]1(OC(C)=O)CO[C@@H]1C[C@@H]2O` [PTX, paclitaxel] has an IC50 (Homo sapiens, SK-OV-3, PTX, PPP and PPPM nanogels) of 30.6 nM.
